Measured values as given in patent US12390436B1, “Mutations in mitochondrial enzyme GPT2 cause metabolic dysfunction and neurological disease with developmental and progressive features” (priority 2020, dated 2025).
“Also recorded” adds a separate entry of the source.

Legend:
[1] = in vivo; cited from earlier work
germline Gpt2-null mice = assay: Dietary supplementation of germline Gpt2-null mice: survival and phenotype; assay type: in vivo, mouse
From the text: Vertebrate animal assays. The assays use a wild-type mouse line and a genetically modified mouse line (i.e., germline Gpt2-null line). A person having ordinary skill in the biomedical art can perform these assays following the procedures in protocol 18-11-0002, approved by the Brown University Institutional Animal Care and Use Committee (IACUC). All animals used in assays described in this specification were housed at the Brown University Animal Care Facility.
Rescue of motor phenotype in vivo with dietary modifications. Synthesis of alanine in the brain is prominently deficient in Gpt2-null animals. An overriding hypothesis (OH1) is that, in the absence of GPT2, alanine changes from a non-essential amino acid to an essential amino acid in neurons, and neuronal alanine deficiency impedes protein synthesis and neuronal growth. The inventors determined there is an anaplerotic defect in Gpt2-null brains (OH2). The inventors are attempting to rescue animal survival, weight gain, and health of the motor system by alanine supplementation, anaplerotic supplementation, and the combination. […] The inventors are testing the extent to which other phenotypic aspects, particularly related to motor defects, are ameliorated by alanine supplementation over time with and without anaplerotic supplementation. The inventors also investigate the requirement for exogenous dietary alanine by removing alanine from the diet of Gpt2-null animals.
Alanine supplementation: Littermate germline Gpt2-null and wild-type animals are fed either high-alanine diet (5% by weight), alanine-deprived diet (0%), or standard chow (1.2%). The formulations generated by Envigo are fed to breeding pairs, pregnant mothers, and pups, based on prior studies by Battaglia & Regnault, Placenta, 22, 145-161 (2001). Food is provided ad libitum. Therefore, newborn Gpt2-mutant pups are receiving the diet throughout gestation and from birth onward. […] The inventors measured alanine in peripheral blood and brain tissue by metabolomics. […]

[2] = clinical trials, e.g., NCT01379625 and NCT01993186 (Vockley et al. 2017); cited from earlier work
[3] = preclinical studies (Willis et al. 2010; Hadera et al. 2014); cited from earlier work

SMILES | crosses the blood-brain barrier [1] | effect on survival of germline Gpt2-null animals (in words) (germline Gpt2-null mice; alanine supplementation / high-alanine diet, preliminary work) | effect on phenotype in the mouse model of Gpt2 disease (in words) (germline Gpt2-null mice; dietary supplementation in development, preliminary data) | survival of germline Gpt2-null pups beyond weaning (germline Gpt2-null mice; supplemental dietary alanine to pregnant and lactating mothers and pups, freely feeding, vs. 0% on standard chow, p<0.0001, log-rank (Mantel-Cox) test) [%] | tolerability [2] | antiseizure effects [3]
C[C@H](N)C(=O)O [alanine] | crosses the blood-brain barrier | impact; also recorded: improves the survival | benefited; also recorded: partially ameliorates the phenotype | 36.7 | – | –
CCCCCCC(=O)OCC(COC(=O)CCCCCC)OC(=O)CCCCCC [triheptanoin, reference compound] | – | – | – | – | well tolerated | has antiseizure effects
